# Laboratory results reported in PubChem BioAssay (NCI).
# “And” between values parts separate entries of the source, which are not always exact repeats. Identical values can stand only once.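 A five-concentration, 48-hour dose response in 96-well plates underlies each endpoint, interpolated linearly between surrounding concentrations. The concentration for 50% growth inhibition is given as GI50. The concentration for full growth arrest is given as TGI.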
# How the values were obtained:
# Experiment in all cases: NCI tumour cell line growth inhibition, 48 h
# [1] = test system: NCI-H23 lung
# [2] = test system: PC-3 prostate
# [3] = test system: SNB-75 CNS
# [4] = test system: BT-549 breast
# [5] = test system: SNB-19 CNS
# [6] = test system: NCI-H460 lung
# [7] = test system: HOP-62 NSCLC
# [8] = test system: EKVX NSCLC
Structure (SMILES),GI50 [1],TGI [1],GI50 [2],TGI [2],GI50 [3],TGI [3],GI50 [4],TGI [4],GI50 [5],TGI [5] [µM],GI50 [6],TGI [6],GI50 [7],TGI [7],GI50 [8] [µM],TGI [8] [µM]
O=[N+]([O-])/C(=C/C=C/c1ccccc1)c1ccccc1,2.25 µM,6.16 µM,1.88 µM,4.29 µM,2.22 µM,7.27 µM,1.91 µM,4.1 µM,3.33 µM,10.6,3.3 µM,11.3 µM,7.29 µM,21.4 µM,6.03,16.3
O=C(Nc1ccc(-n2cc(-c3ccncc3)c(-c3ccc(Cl)c(O)c3)n2)cc1)c1ccc(Cl)c(Cl)c1,4.18 µM,> 100 µM,4.18 µM,> 100 µM,3.92 µM,> 100 µM,5.04 µM,> 100 µM,> 100 µM,> 100,3.09 µM,> 100 µM,0.711 µM,2.65 µM,5.81,> 100
CC(C)(C)c1cnc(CSc2cnc(NC(=O)C3CCNCC3)s2)o1,0.251 µM and 0.211 µM,0.767 µM and > 2.56 µM,0.21 µM and 0.19 µM,2.81 µM and > 9 µM,0.15 µM and 0.124 µM,0.4 µM and 0.324 µM,0.304 µM and 0.298 µM,2.83 µM and 2.45 µM,0.244 µM and 0.259 µM,> 100,0.306 µM and 0.319 µM,25.4 µM and > 10 µM,0.282 µM and 0.343 µM,7.06 µM and > 8.87 µM,0.427,> 10
COc1ccc(C2=NOC3=c4ccccc4=CSC3=C2c2ccccc2)cc1,46.2 µM,> 100 µM,20.5 µM,> 100 µM,> 100 µM,> 100 µM,24 µM,77 µM,34.7 µM,> 100,21.5 µM,89 µM,17.3 µM,> 100 µM,94,> 100
O=C(N[C@H]1CC2(C=C(I)C(=O)C(I)=C2)OC1=O)OCc1ccccc1,,32.6 µM,,,,38.2 µM,,,,47.6,,43 µM,,45.6 µM,,27.3
COc1cc(C(=O)/C=C/c2c(C)n([O-])c3ccc(Cl)cc3[n+]2=O)cc(OC)c1OC,7.59 µM,68.6 µM,26.9 µM,> 100 µM,5.18 µM,> 100 µM,11 µM,> 100 µM,30.2 µM,> 100,12.5 µM,36.6 µM,21.6 µM,71 µM,8.46,> 100
OCCN1CCCN(CCCN2c3ccccc3Sc3ccc(C(F)(F)F)cc32)CC1,,,,,1.21 µM,8.51 µM,5.93 µM,20.4 µM,2.84 µM,11.7,1.95 µM,3.77 µM,2.25 µM,5.05 µM,,
CC1(C)N=C(N)N=C(N)N1c1ccc(CCCCCCc2ccc(S(=O)(=O)F)cc2)cc1,,12.6 µM,,15.4 µM,,24.8 µM,,,,5.17,,> 37.8 µM,,15.8 µM,,21.3
C=C1CCC2C(C)(CO)C(O)CCC2(C)C1C/C=C1\C(=O)OCC1O (stereo not given),,49.8 µM,,71.6 µM,,30.5 µM,,20.3 µM,,> 100,,59.2 µM,,54.4 µM,,99.7
C=C(c1ccc(C(=O)NCCCn2ccnc2)cc1)c1cc2c(cc1C)C(C)(C)CCC2(C)C,3.69 µM,66.5 µM,0.158 µM,> 51.7 µM,2.46 µM,7.82 µM,3.14 µM,14.9 µM,2.25 µM,> 100,0.87 µM,10.5 µM,2.46 µM,11.6 µM,4.84,> 100
CC(C)(C)OC(=O)CC(S(=O)(=O)c1ccccc1)S(=O)(=O)c1ccccc1,14.6 µM,32.1 µM,15.1 µM,29.7 µM,14.2 µM,31.1 µM,12.4 µM,25.2 µM,> 100 µM,> 100,19.5 µM,39.4 µM,19.1 µM,35.4 µM,19.6,39.4
Clc1cc(Cl)cc(Nc2ccc3c(OCCCN4CCOCC4)cccc3n2)c1,2.94 µM,10.2 µM,1.94 µM,4.69 µM,,,6.93 µM,20 µM,2.08 µM,4.39,2.42 µM,5.86 µM,2.29 µM,7.03 µM,2.95,9.15
c1ccc(-c2nc3ccccc3[nH]2)c(OCCCCCOc2ccccc2-c2nc3ccccc3[nH]2)c1,13.1 µM,45.4 µM,7.64 µM,96.8 µM,8.78 µM,47.4 µM,13.5 µM,33.3 µM,14.4 µM,31.9,3.75 µM,25.6 µM,22.1 µM,52.5 µM,11.8,32.7
COc1ccc(N=C2C(=O)Nc3ccc(Br)cc32)cc1,,45 µM,,> 100 µM,,,,,,> 100,,78.4 µM,,88.4 µM,,47.1
Cn1cc(C2=C(c3cccc([N+](=O)[O-])c3)C(=O)NC2=O)c2ccccc21,6.66 µM,> 25 µM,5.61 µM,> 25 µM,0.14 µM,> 25 µM,6.38 µM,> 23.2 µM,19.6 µM,> 25,8.52 µM,> 25 µM,7.47 µM,> 25 µM,,
CN1CCC(C(=O)Nc2n[nH]c3nnc(-c4ccccc4)cc23)CC1,> 25 µM,> 25 µM,> 22.7 µM,> 25 µM,> 5.22 µM,> 25 µM,> 25 µM,> 25 µM,> 25 µM,> 25,> 25 µM,> 25 µM,> 25 µM,> 25 µM,> 25,> 25
COc1cc([N+](=O)[O-])c(S(=O)(=O)O)cc1-[n+]1nc(C(=O)Nc2ccccc2)nn1-c1ccc([N+](=O)[O-])c(S(=O)(=O)[O-])c1,,> 100 µM,,> 100 µM,,> 100 µM,,,,> 100,,> 100 µM,,> 100 µM,,> 100

Structure (SMILES),GI50 [1],TGI [1],GI50 [2],TGI [2],GI50 [3],TGI [3],GI50 [4],TGI [4],GI50 [5],TGI [5] [µM],GI50 [6],TGI [6],GI50 [7],TGI [7],GI50 [8] [µM],TGI [8] [µM]
COc1ccc(-c2nc3sccn3c2/C=C/C(=O)c2cc(OC)c(OC)c(OC)c2)cc1,2.49 µM,> 28.7 µM,2.97 µM,> 38.7 µM,1.3 µM,> 20.7 µM,2.56 µM,> 28.7 µM,3.32 µM,> 100,2.54 µM,11.1 µM,2.53 µM,> 25.7 µM,3.1,> 100
CC(=O)OCCc1cc2ccccc2oc1=O,,> 100 µM,,> 100 µM,,> 100 µM,,> 100 µM,,> 100,,> 100 µM,,> 100 µM,,> 100
O=C(NCCNC1=CC(=O)c2nc3ccccc3c3ccnc1c23)c1cnccn1,46.4 µM,> 100 µM,13.1 µM,> 100 µM,> 100 µM,> 100 µM,44.8 µM,> 100 µM,42.2 µM,> 100,18.4 µM,> 100 µM,18.9 µM,> 100 µM,> 100,> 100
CC[C@]1(O)C[C@@H]2CN(CCc3c([nH]c4ccccc34)[C@@](C(=O)OC)(c3cc4c(cc3OC)N(C)[C@H]3[C@@](O)(C(=O)OC)[C@H](OC(=O)CCCBr)[C@]5(CC)C=CCN6CC[C@]43[C@@H]65)C2)C1,< 0.0204 µM,> 100 µM,0.0141 µM,14.3 µM,< 0.01 µM,< 0.01 µM,0.0637 µM,10.1 µM,< 0.0215 µM,> 100,0.0245 µM,> 100 µM,0.0386 µM,> 100 µM,0.336,> 100
CN(Cc1cnc2nc(N)nc(N)c2n1)c1c(Cl)cc(C(=O)NC(CCC(=O)O)C(=O)O)cc1Br (stereo not given),0.016 µM,> 100 µM,< 0.01 µM,> 80.1 µM,,,< 0.0122 µM,> 100 µM,0.031 µM,> 100,< 0.01 µM,> 100 µM,< 0.0221 µM,> 100 µM,< 0.0282,> 100
C#CCN(CCCOc1ccc(Cl)cc1Cl)CCCSC(=O)CCCCCN1/C(=C\C=C2/CCCC(/C=C/C3=[N+](CCCCCC(=O)[O-])c4ccccc4C3(C)C)=C2Cl)C(C)(C)c2ccccc21,1.94 µM,5.09 µM,1.69 µM,4.01 µM,1.3 µM,3.85 µM,1.05 µM,2.34 µM,1.12 µM,3.64,1.77 µM,5.01 µM,2.1 µM,5.72 µM,2.42,12.8
O=C(Cc1csc2nc(-c3ccc(Br)cc3)cn12)N/N=C/c1ccccc1O,3.43 µM,14 µM,4.28 µM,16.7 µM,13 µM,32 µM,10.1 µM,22.6 µM,6.8 µM,25.4,15.7 µM,> 100 µM,3.88 µM,14.9 µM,3.93,19.2
NCC[PH+](c1ccccc1)c1ccccc1.NCC[PH+](c1ccccc1)c1ccccc1.[Cl-].[Pt+4],> 100 µM,> 100 µM,> 100 µM,> 100 µM,> 100 µM,> 100 µM,> 100 µM,> 100 µM,46.1 µM,> 100,84.5 µM,> 100 µM,> 100 µM,> 100 µM,> 100,> 100
CCCCCCC1CCCCN1C(c1ccccc1)C(O)c1ccccc1 (stereo not given),6.33 µM,20.9 µM,6.93 µM,20.6 µM,11.4 µM,23.7 µM,10.4 µM,22.4 µM,15.1 µM,30,3.92 µM,13.6 µM,10.3 µM,22.5 µM,5.87,21.3
Cc1nc2sc(C(=O)Nc3cccc(Cl)c3)c(N)c2cc1C(O)c1ccccc1 (stereo not given),1.4 µM,19.4 µM,2.78 µM,25.1 µM,0.243 µM,12.3 µM,6.13 µM,35.6 µM,2.33 µM,20.3,0.379 µM,1.85 µM,1.45 µM,25.5 µM,3.39,26.1
COc1cc(COC(=O)N(C)[C@@H](Cc2ccccc2)C(=O)O)c([N+](=O)[O-])cc1OC,,> 100 µM,,> 100 µM,,> 100 µM,,> 100 µM,,> 100,,> 100 µM,,> 100 µM,,> 100
Cc1cn([C@H]2CN(O)C[C@@H](CO)O2)c(=O)[nH]c1=O,,,,> 100 µM,,> 100 µM,,> 100 µM,,> 100,,> 100 µM,,> 100 µM,,> 100
Cc1ncc([N+](=O)[O-])n1CCOc1ccc(C(=O)/C=C/c2ccc(C(F)(F)F)cc2)cc1,,,2.25 µM,12.2 µM,2.57 µM,12.8 µM,4.64 µM,17 µM,3.34 µM,15.7,4.09 µM,15 µM,2.53 µM,7.29 µM,,
COc1cc(C(=O)Nc2ccc(-c3nc4ccccc4[nH]3)cc2)cc(OC)c1OC,11.9 µM,34.6 µM,13.6 µM,34 µM,10.9 µM,24.6 µM,12.7 µM,29.2 µM,11.6 µM,29.1,5.74 µM,22.7 µM,6.44 µM,23.9 µM,,
COc1cc2c(cc1OC)C(Sc1ccc(Cl)cc1)c1c(nc(N)c(C#N)c1N)O2 (stereo not given),,,1.56 µM,3.07 µM,1.14 µM,2.42 µM,1.49 µM,2.83 µM,1.47 µM,2.86,1.65 µM,3.74 µM,1.53 µM,2.88 µM,1.57,3.02
Nc1nc2c([nH]1)c1[nH]c3ccccc3c1c1[nH]c3ccccc3c21,13.7 µM,29.5 µM,11 µM,23.1 µM,11.9 µM,25.1 µM,12.1 µM,25.5 µM,12.8 µM,25.5,,,13.8 µM,27.3 µM,14.1,30.8
